# From patent publication US20200017495A1, “NOVEL HETEROCYCLIC COMPOUNDS AND THEIR USE IN PREVENTING OR TREATING BACTERIAL INFECTIONS” (priority 2017, published 2020)
# Experiments:
# Assay in all cases: MIC of compounds alone and combined with antibacterials, broth microdilution (CLSI)
# Format in all cases: cell-based
# [1] = tested on: Providencia stuartii (PST) isolates
# Summary of the method: (§1)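 CLSI broth microdilution: log-phase isolates at 5.10^5 CFU/mL in cation-adjusted Mueller-Hinton broth were exposed to compound alone or in combination with an antibacterial, 16-20 h at 35° C in ambient air. MIC is the lowest concentration preventing visible growth, including the antibacterial MIC at each compound concentration.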
# [2] = tested on: Citrobacter murliniae (CMU) isolates; settings: for MIC ATB in combination: CMU 210102
# Summary of the method: as §1
# [3] = tested on: Enterobacter cloacae (ECL) isolates
# Summary of the method: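 First, log-phase suspensions are brought to 5.10^5 CFU/mL final in ca-MHB; plates then incubate 16-20 h at 35° C in air. Growth is judged visually, giving the compound MIC alone and the antibacterial MIC at each compound concentration.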
structure (smiles),measurement,setting,value
"C=CC1=C(C(=O)O)N2C(=O)[C@@H](NC(=O)/C(=N\OCC(=O)O)c3csc(N)n3)[C@H]2SC1 [FIX, Cefixime]",MIC ATB in combination,"[1]; PST UFR120, AF2 @ 8 μg/mL",<0.25 µg/mL
same,MIC ATB in combination,"[1]; PST UFR120, AF3 @ 8 μg/mL",<0.25 µg/mL
same,MIC ATB in combination,"[1]; PST UFR120, CLA @ 4 μg/mL",<=0.25 μg/mL
same,MIC ATB in combination,"[1]; PST UFR121, AF2 @ 8 μg/mL",<0.25 µg/mL
same,MIC ATB in combination,"[1]; PST UFR121, AF3 @ 8 μg/mL",<0.25 µg/mL
same,MIC ATB in combination,"[1]; PST UFR121, CLA @ 4 μg/mL",<=0.25 μg/mL
same,MIC ATB in combination,"[1]; PST UFR122, AF2 @ 8 μg/mL",<0.25 µg/mL
same,MIC ATB in combination,"[1]; PST UFR122, AF3 @ 8 μg/mL",<0.25 µg/mL
same,MIC ATB in combination,"[1]; PST UFR122, CLA @ 4 μg/mL",<=0.25 μg/mL
same,MIC ATB in combination,"[1]; PST UFR123, AF2 @ 8 μg/mL",<0.25 µg/mL
same,MIC ATB in combination,"[1]; PST UFR123, AF3 @ 8 μg/mL",<0.25 µg/mL
same,MIC ATB in combination,"[1]; PST UFR123, CLA @ 4 μg/mL",<=0.25 μg/mL
same,MIC ATB in combination,"[1]; PST UFR124, AF2 @ 8 μg/mL",<0.25 µg/mL
same,MIC ATB in combination,"[1]; PST UFR124, AF3 @ 8 μg/mL",<0.25 µg/mL
same,MIC ATB in combination,"[1]; PST UFR124, CLA @ 4 μg/mL",<=0.25 μg/mL
same,MIC ATB in combination,"[1]; PST UFR125, AF2 @ 8 μg/mL",<0.25 µg/mL
same,MIC ATB in combination,"[1]; PST UFR125, AF3 @ 8 μg/mL",<0.25 µg/mL
same,MIC ATB in combination,"[1]; PST UFR125, CLA @ 4 μg/mL",<=0.25 μg/mL
same,MIC ATB in combination,"[1]; PST UFR235, AF2 @ 8 μg/mL",<=0.25 μg/mL
same,MIC ATB in combination,"[1]; PST UFR235, AF3 @ 8 μg/mL",<=0.25 μg/mL
same,MIC ATB in combination,"[1]; PST UFR235, CLA @ 4 μg/mL",8 µg/mL
same,MIC,"[1]; strain PST UFR94, genotype CTX-M-14",0.5 µg/mL
same,MIC,"[1]; strain PST UFR95, genotype TEM-24",4 µg/mL
same,MIC,"[1]; strain PST UFR98, genotype TEM-1, CMY-6, OXA-1, NDM-1, RmtC",>128 µg/mL
same,MIC ATB in combination,"[1]; strain PST UFR98, with AF2 @ 8 μg/mL",64 µg/mL
same,MIC ATB in combination,"[1]; strain PST UFR98, with AF3 @ 8 μg/mL",32 µg/mL
same,MIC ATB in combination,"[1]; strain PST UFR98, with CLA @ 4 μg/mL",>128 µg/mL
same,MIC,"[1]; strain PST UFR235, compound alone",512 µg/mL
same,MIC,"[1]; strain PST UFR235, genotype VEB-1",512 µg/mL
same,MIC ATB in combination,[2]; AF2 @ 8 μg/mL,>128 µg/mL
same,MIC ATB in combination,[2]; AF3 @ 8 μg/mL,>128 µg/mL
same,MIC ATB in combination,[2]; CLA @ 4 μg/mL,>128 µg/mL
same,MIC,"[2]; strain CMU 210102, genotype VIM-4",>128 µg/mL
same,MIC ATB in combination,"[3]; ECL 2185D, AF2 @ 8 μg/mL",>128 µg/mL
same,MIC ATB in combination,"[3]; ECL 2185D, AF3 @ 8 μg/mL",>128 µg/mL
same,MIC ATB in combination,"[3]; ECL 2185D, CLA @ 4 μg/mL",>128 µg/mL
same,MIC ATB in combination,"[3]; ECL 190310, AF2 @ 8 μg/mL",>128 µg/mL
same,MIC ATB in combination,"[3]; ECL 190310, AF3 @ 8 μg/mL",64 µg/mL
same,MIC ATB in combination,"[3]; ECL 190310, CLA @ 4 μg/mL",>128 µg/mL
same,MIC ATB in combination,"[3]; ECL 190408, AF2 @ 8 μg/mL",<0.25 µg/mL
same,MIC ATB in combination,"[3]; ECL 190408, AF3 @ 8 μg/mL",<0.25 µg/mL
same,MIC ATB in combination,"[3]; ECL 190408, CLA @ 4 μg/mL",128 µg/mL
same,MIC ATB in combination,"[3]; ECL 200138, AF2 @ 8 μg/mL",>128 µg/mL
same,MIC ATB in combination,"[3]; ECL 200138, AF3 @ 8 μg/mL",>128 µg/mL
same,MIC ATB in combination,"[3]; ECL 200138, CLA @ 4 μg/mL",>128 µg/mL
same,MIC ATB in combination,"[3]; ECL 200322, AF2 @ 8 μg/mL",<=0.25 μg/mL
same,MIC ATB in combination,"[3]; ECL 200322, AF3 @ 8 μg/mL",<0.25 µg/mL
same,MIC ATB in combination,"[3]; ECL 200322, CLA @ 4 μg/mL",64 µg/mL
same,MIC ATB in combination,"[3]; ECL 260033, AF2 @ 8 μg/mL",>128 µg/mL
same,MIC ATB in combination,"[3]; ECL 260033, AF3 @ 8 μg/mL",>128 µg/mL
same,MIC ATB in combination,"[3]; ECL 260033, CLA @ 4 μg/mL",>128 µg/mL
same,MIC ATB in combination,"[3]; ECL 260253, AF2 @ 8 μg/mL",<0.25 µg/mL
same,MIC ATB in combination,"[3]; ECL 260253, AF3 @ 8 μg/mL",<=0.25 μg/mL
same,MIC ATB in combination,"[3]; ECL 260253, CLA @ 4 μg/mL",64 µg/mL
same,MIC ATB in combination,"[3]; ECL 260323, AF2 @ 8 μg/mL",<0.25 µg/mL
same,MIC ATB in combination,"[3]; ECL 260323, AF3 @ 8 μg/mL",<0.25 µg/mL
same,MIC ATB in combination,"[3]; ECL 260323, CLA @ 4 μg/mL",>128 µg/mL
same,MIC ATB in combination,"[3]; ECL 260508, AF2 @ 8 μg/mL",<0.25 µg/mL
same,MIC ATB in combination,"[3]; ECL 260508, AF3 @ 8 μg/mL",<=0.25 μg/mL
